From patent publication US9029386B2, “Pyridine derivatives useful as kinase inhibitors” (YM Biosciences Australia Pty Ltd, priority 2006, dated 2015)

How the values were obtained:
[1] = target: T1, kinase domain of human CSF1-R (Homo sapiens, UniProt P07333); assay: Alphascreen protein tyrosine kinase assay, CSF-1R; type: biochemical
T1 construct: from codon I553 to Q961; made in house; host or cells: Sf9 insect cells (baculovirus)
T1 sequence (P07333 553-961): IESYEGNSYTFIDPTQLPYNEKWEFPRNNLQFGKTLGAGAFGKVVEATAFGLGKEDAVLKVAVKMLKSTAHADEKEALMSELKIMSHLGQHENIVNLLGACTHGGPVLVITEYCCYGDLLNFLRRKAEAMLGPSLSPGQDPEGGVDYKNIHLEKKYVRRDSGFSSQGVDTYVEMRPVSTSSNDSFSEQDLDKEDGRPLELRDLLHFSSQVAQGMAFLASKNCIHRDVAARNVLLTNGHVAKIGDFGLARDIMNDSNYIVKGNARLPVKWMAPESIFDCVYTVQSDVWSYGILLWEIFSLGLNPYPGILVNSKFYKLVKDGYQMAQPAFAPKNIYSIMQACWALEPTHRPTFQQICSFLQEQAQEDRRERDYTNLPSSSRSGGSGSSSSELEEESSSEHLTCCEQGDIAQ
Experimental: (§1) For screening purposes, compounds were diluted in 96 well plates at a concentration of 20 μM. Plates were warmed at 37° C. for 30 minutes before assay.
The kinase domain of human CSF1-R from codon I553 to Q961 was cloned into the pDEST-20 expression vector (Invitrogen). The CSF1-R plasmid was then transformed into competent DH10Bac cells (Gibco), and the recombinant baculovirus produced prepared for transfection into Sf9 insect cells.
(§2) Baculovirus preparations from each of construct were infected into five liters of SF9 cells (Invitrogen) grown in SF-900 medium (Invitrogen) to a cell density of approximately 1−2×10^6 cells/ml. […] Cells were harvested and lysed. Tyrosine kinase domains were purified by affinity chromatography on a glutathione-agarose column (Scientifix Pty. Ltd. catalog #: GSH-200).
(§3) Kinase assays were performed in 384 well Optiplates (Packard) using an Alphascreen Protein Tyrosine Kinase kit. […] Alphascreen phosphotyrosine acceptor beads followed by streptavidin donor beads were added under subdued light. The Alphascreen plates were read on a Packard Fusion Alpha. Inhibitors were added to the assays thirty minutes prior to the addition of ATP. Inhibitors were added in aqueous DMSO, with DMSO concentrations never exceeding 1%.

mNFS-60 = assay: Cellular assay (Alamar Blue), mNFS-60 with human M-CSF; type: cell-based; details: human M-CSF at 20 ng/ml, 72 hr
Experimental: (§4) Cells for the assays were prepared by harvesting cells from culture, and then diluting them in the appropriate growth medium to between 40,000 cell/mL and 600,000 cell/mL, depending on the cell line.
(§5) The compounds to be tested were added (104, 10× final concentration) to a flat bottomed 96-well plate. The cellular suspension (80 μL per well) was added, and one hour later the growth factor was added (human M-CSF at 20 ng/ml for mNFS-60, mouse IL-3 at 5 ng/ml for Baf3-WT). The plate was then incubated for 72 hr at 37° C., 5% CO2. Alamar Blue (10^4 per well) was added and the plates returned to the incubator for a further 4-8 hours.
(§6) The plates were then read using a fluorescence plate reader at excitation 544 nm and emission 590 nm.

Baf3-WT = assay: Cellular assay (Alamar Blue), Baf3-WT with mouse IL-3; type: cell-based; details: mouse IL-3 at 5 ng/ml, 72 hr
Experimental: as §4, §5, §6

[2] = target: T2, kinase domain of human c-kit (Homo sapiens, UniProt P10721); assay: Alphascreen protein tyrosine kinase assay, c-KIT; type: biochemical
T2 construct: from codon M552 to end; made in house; host or cells: Sf9 insect cells (baculovirus)
Experimental: as §1
The kinase domain of human c-kit from codon M552 to end was cloned into the pDEST-20 expression vector (Invitrogen). The c-kit plasmid was then transformed into competent DH10Bac cells (Gibco), and the recombinant baculovirus produced prepared for transfection into Sf9 insect cells.
as §2, §3

KDR protein kinase = target: T3, KDR protein kinase (Homo sapiens, UniProt P35968); assay: Alphascreen protein tyrosine kinase assay, KDR; type: biochemical
T3 construct: purchased Millipore 14-630M
Experimental: as §1
FLT-3 and PDGFR β tyrosine kinase enzymes were purchased from Upstate Cell Signalling Solutions, CA, USA (flt-3 catalog #: 14-500 and PDGFR β catalog #: 14-463). KDR protein kinase enzyme was purchased from Millipore (catalogue #14-630M).
Kinase assays were performed in 384 well Optiplates (Packard) using an Alphascreen Protein Tyrosine Kinase kit. […] The biotinylated peptides Biotin-[…]-NH2 for c-KIT and PDGFRβ and Biotin-[…]-NH2 for CSF1-R and FLT-3 (final concentration 0.1-3 μM) were used as substrates. Alphascreen phosphotyrosine acceptor beads followed by streptavidin donor beads were added under subdued light. The Alphascreen plates were read on a Packard Fusion Alpha. Inhibitors were added to the assays thirty minutes prior to the addition of ATP. Inhibitors were added in aqueous DMSO, with DMSO concentrations never exceeding 1%.

PDGFR β tyrosine kinase = target: T4, PDGFR β tyrosine kinase (Homo sapiens, UniProt P09619); assay: Alphascreen protein tyrosine kinase assay, PDGFRβ; type: biochemical
T4 construct: purchased Upstate Cell Signalling Solutions, CA, USA 14-463
T4 sequence (P09619 33-1106): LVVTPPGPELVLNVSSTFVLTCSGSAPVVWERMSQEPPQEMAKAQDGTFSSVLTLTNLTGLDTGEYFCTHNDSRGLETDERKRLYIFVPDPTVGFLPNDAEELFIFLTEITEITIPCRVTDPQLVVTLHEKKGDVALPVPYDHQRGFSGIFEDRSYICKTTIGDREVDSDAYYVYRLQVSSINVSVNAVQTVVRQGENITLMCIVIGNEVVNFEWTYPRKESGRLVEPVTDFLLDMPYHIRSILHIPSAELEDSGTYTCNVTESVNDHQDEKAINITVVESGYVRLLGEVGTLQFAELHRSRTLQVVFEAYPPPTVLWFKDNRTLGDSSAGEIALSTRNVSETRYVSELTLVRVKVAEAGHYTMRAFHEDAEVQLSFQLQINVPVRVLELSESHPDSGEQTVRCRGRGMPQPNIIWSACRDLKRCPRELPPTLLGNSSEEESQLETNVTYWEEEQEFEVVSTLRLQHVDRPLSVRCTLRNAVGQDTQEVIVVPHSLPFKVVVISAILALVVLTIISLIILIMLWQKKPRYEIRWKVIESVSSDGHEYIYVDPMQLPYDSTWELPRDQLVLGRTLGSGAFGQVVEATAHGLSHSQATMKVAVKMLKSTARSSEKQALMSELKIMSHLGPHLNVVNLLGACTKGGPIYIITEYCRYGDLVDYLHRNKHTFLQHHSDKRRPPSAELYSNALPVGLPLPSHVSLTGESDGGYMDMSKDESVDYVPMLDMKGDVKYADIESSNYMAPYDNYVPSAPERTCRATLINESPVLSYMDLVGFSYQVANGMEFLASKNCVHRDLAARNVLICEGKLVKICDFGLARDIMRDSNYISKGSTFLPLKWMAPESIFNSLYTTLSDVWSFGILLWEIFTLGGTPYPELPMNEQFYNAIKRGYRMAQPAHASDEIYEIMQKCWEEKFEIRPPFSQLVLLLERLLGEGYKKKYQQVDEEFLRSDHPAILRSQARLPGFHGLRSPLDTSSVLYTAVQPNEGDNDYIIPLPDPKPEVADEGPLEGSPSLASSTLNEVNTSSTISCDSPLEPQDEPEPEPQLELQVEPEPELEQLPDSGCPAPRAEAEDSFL

T3 sequence (P35968 20-1356): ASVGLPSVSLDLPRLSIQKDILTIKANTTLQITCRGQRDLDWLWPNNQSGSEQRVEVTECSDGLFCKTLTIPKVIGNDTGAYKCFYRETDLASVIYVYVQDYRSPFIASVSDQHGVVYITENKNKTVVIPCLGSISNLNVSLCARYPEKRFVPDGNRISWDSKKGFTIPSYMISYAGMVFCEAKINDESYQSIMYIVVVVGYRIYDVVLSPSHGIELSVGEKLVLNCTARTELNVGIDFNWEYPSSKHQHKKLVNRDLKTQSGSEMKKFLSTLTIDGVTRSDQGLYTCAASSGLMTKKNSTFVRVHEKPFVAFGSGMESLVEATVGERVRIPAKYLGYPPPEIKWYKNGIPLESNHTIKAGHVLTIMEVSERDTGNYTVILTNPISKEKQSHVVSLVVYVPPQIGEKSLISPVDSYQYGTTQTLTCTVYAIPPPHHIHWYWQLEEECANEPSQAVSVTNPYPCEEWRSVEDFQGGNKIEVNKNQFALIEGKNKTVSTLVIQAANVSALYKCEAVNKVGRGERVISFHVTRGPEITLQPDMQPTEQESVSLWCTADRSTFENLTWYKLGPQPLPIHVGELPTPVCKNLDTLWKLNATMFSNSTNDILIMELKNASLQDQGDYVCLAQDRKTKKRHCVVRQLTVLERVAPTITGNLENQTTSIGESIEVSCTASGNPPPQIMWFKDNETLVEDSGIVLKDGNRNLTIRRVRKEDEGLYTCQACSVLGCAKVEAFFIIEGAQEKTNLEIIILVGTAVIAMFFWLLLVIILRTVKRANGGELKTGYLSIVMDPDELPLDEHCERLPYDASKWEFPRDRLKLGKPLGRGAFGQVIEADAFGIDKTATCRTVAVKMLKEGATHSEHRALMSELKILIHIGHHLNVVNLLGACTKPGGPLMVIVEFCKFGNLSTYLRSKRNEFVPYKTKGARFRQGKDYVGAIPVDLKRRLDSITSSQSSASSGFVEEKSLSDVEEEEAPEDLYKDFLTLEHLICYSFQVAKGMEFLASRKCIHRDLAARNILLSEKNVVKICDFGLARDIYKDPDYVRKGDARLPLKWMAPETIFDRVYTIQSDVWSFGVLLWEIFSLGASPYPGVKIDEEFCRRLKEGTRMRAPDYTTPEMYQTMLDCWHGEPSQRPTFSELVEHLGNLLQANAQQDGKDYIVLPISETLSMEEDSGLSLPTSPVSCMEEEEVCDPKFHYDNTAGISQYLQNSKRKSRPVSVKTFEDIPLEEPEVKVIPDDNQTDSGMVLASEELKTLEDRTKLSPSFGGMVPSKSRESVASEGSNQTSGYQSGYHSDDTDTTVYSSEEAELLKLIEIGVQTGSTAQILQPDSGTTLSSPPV
T2 sequence (P10721 552-976 limits assumed): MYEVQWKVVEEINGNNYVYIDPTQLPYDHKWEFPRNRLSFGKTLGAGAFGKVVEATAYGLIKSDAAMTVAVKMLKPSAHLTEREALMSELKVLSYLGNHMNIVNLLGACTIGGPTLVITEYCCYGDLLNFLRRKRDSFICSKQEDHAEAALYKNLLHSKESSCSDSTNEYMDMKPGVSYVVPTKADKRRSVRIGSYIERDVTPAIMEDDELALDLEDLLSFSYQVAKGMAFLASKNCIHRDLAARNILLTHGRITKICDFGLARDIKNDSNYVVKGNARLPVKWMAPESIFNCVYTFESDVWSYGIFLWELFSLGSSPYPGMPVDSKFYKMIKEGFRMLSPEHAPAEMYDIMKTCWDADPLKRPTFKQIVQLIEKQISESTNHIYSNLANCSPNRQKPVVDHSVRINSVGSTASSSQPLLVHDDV

Structure (SMILES) | IC50 [1] [µM] | IC50 (mNFS-60) [µM] | IC50 (Baf3-WT) [µM] | IC50 [2] [µM] | IC50 (KDR protein kinase) [µM] | IC50 (PDGFR β tyrosine kinase) [µM]
C[C@H](Nc1cncc(-c2cccc(S(N)(=O)=O)c2)n1)c1cccc(NC(=O)c2cccc(C(F)(F)F)c2)c1 [Compound 178] | < 0.1 | < 0.2 | < 10 | < 1 | < 0.1 | 
COc1cc(-c2cncc(N[C@@H](C)c3cccc(NC(=O)c4cccnc4)c3)n2)ccc1O [Compound 3] |  |  |  | < 0.1 |  | < 0.1
Cc1cncc(C(=O)Nc2cccc([C@H](C)Nc3cncc(-c4ccc(N5CCOCC5)cc4)n3)c2)c1 [Compound 65] | < 0.1 | < 0.2 | > 10 | < 0.1 | < 0.1 | < 0.1
CC(Nc1cncc(-c2ccc(N)cc2)n1)c1cccc(NC(=O)c2cccnc2)c1 (racemic) [Compound 22] | < 0.1 |  |  | < 0.1 |  | < 1
Cc1ccc(NC(=O)c2cccc(C(F)(F)F)c2)cc1[C@H](C)Nc1cncc(Cl)n1 [Compound 169] | < 1 | < 0.2 | < 10 | < 1 | < 0.1 | 
C[C@H](Nc1cncc(Cl)n1)c1cccc(NC(=O)c2cccc(CN3CCN(C)CC3)c2)c1 [Compound 127] |  | < 1 | > 10 |  |  | 
C[C@H](Nc1cncc(-c2cccc(S(C)(=O)=O)c2)n1)c1cccc(NC(=O)c2cccc(C(F)(F)F)c2)c1 [Compound 181] | < 0.1 | < 0.2 | < 10 | < 0.1 | < 0.1 | 
C[C@H](Nc1cncc(-c2ccc(CN3CCN(C)CC3)cc2)n1)c1cccc(NC(=O)c2cccc(C(F)(F)F)c2)c1 [Compound 191] | < 0.1 | < 0.2 | < 10 | < 0.1 | < 0.1 | 
COc1cccc(-c2cncc(N[C@@H](C)c3cccc(NC(=O)c4cccnc4)c3)n2)c1 [Compound 13] | < 0.1 |  |  | < 0.1 |  | < 0.1
C[C@H](Nc1cncc(-c2cn[nH]c2)n1)c1cccc(NC(=O)c2cccnc2)c1 [Compound 19] | < 0.1 |  |  | < 0.1 |  | < 1
C[C@H](Nc1cncc(-c2cccc(NS(C)(=O)=O)c2)n1)c1cccc(NC(=O)c2cccnc2)c1 [Compound 16] | < 0.1 |  |  | < 0.1 |  | < 1
Cc1cncc(C(=O)Nc2cccc([C@H](C)Nc3cncc(Br)c3)c2)c1 [Compound 62] |  | < 1 | > 10 | < 0.1 | < 0.1 | < 0.1
COc1cccc(-c2cncc(N[C@@H](C)c3cccc(NC(=O)c4cccc(C)c4)c3)n2)c1 [Compound 100] | < 0.1 | < 0.2 | > 10 | < 1 | < 0.1 | < 0.1
COc1cccc(-c2cncc(N[C@@H](C)c3cccc(NC(=O)c4ccc(C)nc4)c3)n2)c1 [Compound 36] | < 0.1 |  |  | < 0.1 |  | < 1
C[C@H](Nc1cncc(-c2ccc(N3CCOCC3)nc2)n1)c1cccc(NC(=O)c2cccc(C(F)(F)F)c2)c1 [Compound 187] | < 0.1 | < 0.2 | > 10 | < 1 | < 0.1 | 
COc1cccc(C(=O)Nc2cccc([C@H](C)Nc3cncc(-c4cccc(N5CCOCC5)c4)n3)c2)c1 [Compound 190] | < 0.1 | < 0.2 | > 10 | < 0.1 | < 0.1 | 
C[C@H](Nc1cncc(-c2ccc(S(N)(=O)=O)cc2)n1)c1cccc(NC(=O)c2cccc(C(F)(F)F)c2)c1 [Compound 173] | < 0.1 | < 1 | > 10 |  |  | 
COc1ccc(-c2cncc(N[C@@H](C)c3cccc(NC(=O)c4cccnc4)c3)n2)c(OC)n1 [Compound 20] | < 0.1 |  |  | < 0.1 |  | < 1
C[C@H](Nc1cncc(-c2ccc(S(C)(=O)=O)cc2)n1)c1cccc(NC(=O)c2cccc(C(F)(F)F)c2)c1 [Compound 182] | < 0.1 | < 0.2 | > 10 | < 1 | < 0.1 | 
C[C@H](Nc1cncc(-c2cccc(CO)c2)n1)c1cccc(NC(=O)c2cccc(C(F)(F)F)c2)c1 [Compound 185] | < 0.1 | < 0.2 | < 10 | < 1 | < 0.1 | 
C[C@H](Nc1cncc(-c2ccc(CO)cc2)n1)c1cccc(NC(=O)c2cccc(C(F)(F)F)c2)c1 [Compound 174, (S)—N-(3-(1-(6-(4-(hydroxymethyl)phenyl)pyrazin-2-ylamino)ethyl)phenyl)-3-(trifluoromethyl)benzamide] | < 0.1 | < 0.2 | > 10 | < 0.1 | < 0.1 | 
C[C@H](Nc1cncc(-c2cccc(N3CCOCC3)c2)n1)c1cccc(NC(=O)c2ccc(F)c(Cl)c2)c1 [Compound 189] | < 0.1 | < 0.2 | > 10 | < 1 | < 0.1 | 
C[C@H](Nc1cncc(-c2cccnc2)n1)c1cccc(NC(=O)c2cccnc2)c1 [Compound 11] | < 1 |  |  | < 1 |  | < 1
Cc1cn(-c2cncc(N[C@@H](C)c3cccc(NC(=O)c4cccc(C(F)(F)F)c4)c3)n2)cn1 [Compound 179] | < 0.1 | < 0.2 | < 10 | < 0.1 | < 0.1 | 
Cc1cncn1-c1cncc(N[C@@H](C)c2cccc(NC(=O)c3cccc(C(F)(F)F)c3)c2)n1 [Compound 188] | < 0.1 | < 0.2 | > 10 | < 0.1 | < 0.1 | 
C[C@H](Nc1cncc(-c2ccc(NS(C)(=O)=O)cc2)n1)c1cccc(NC(=O)c2cccc(C(F)(F)F)c2)c1 [Compound 183] | < 0.1 | < 0.2 | < 10 | < 1 | < 0.1 | 
Cc1ccc(F)c(C(=O)Nc2cccc([C@H](C)Nc3cncc(-c4cccc(N5CCOCC5)c4)n3)c2)c1 [Compound 192] | < 0.1 | < 0.2 | > 10 | < 0.1 | < 0.1 | 
COc1cc(-c2cncc(N[C@@H](C)c3cccc(NC(=O)c4cncc(C)c4)c3)n2)ccc1OP(=O)(O)O [Compound 35] | < 0.1 |  |  | < 1 |  | < 1
